Source: patent publication US9908870B2, “Crystalline form of a benzimidazole derivative and a preparation method thereof” (CJ HEALTHCARE CORPORATION, priority 2015, dated 2018)
Where “and” joins values, the source holds several entries; their conditions need not be identical. Equal values may be shown once.

Legend:
Type in all cases: physicochemical
[1] = Crystal stability test under severe stability testing conditions
Protocol: Finally, a crystal stability test was performed to examine the stability of the crystalline form itself, and the results are shown in Table 4 below.

[2] = Stability test under a photo-stressed condition
Hygroscopicity test = assay: Hygroscopicity test
From the text: Compounds with low hygroscopicity are advantageous in preparing formulations, and also are advantageous for storage. Additionally, compounds with high hygroscopicity are not advantageous in that they are difficult to formulate, and reproducible results may hardly be obtained even though formulations can be successfully achieved.

[3] = Static-electricity inducibility test (bulk density, tapped density, Carr's Index); conditions: for CI (Carr's Index): CI=100×(1−BD/TD), ≦30 value - good flowability
[4] = after 4 weeks at 60±2° C., 80±5% RH
[5] = after 4 weeks, photo-stressed condition
[6] = after 4 weeks, photo-stressed condition (1,200,000 lux or higher and 200 W/m^2 or higher)

Content of impurities (related compounds) [2, 5] [%] | Appearance [2, 6] | Appearance ([2]; initial stage) | Content of impurities (related compounds) ([2]; initial stage) [%] | Hygroscopicity (Hygroscopicity test; 33% RH, after 4 weeks) | Hygroscopicity (Hygroscopicity test; 75% RH, after 4 weeks) | Hygroscopicity (Hygroscopicity test; 93% RH, after 4 weeks) | BD (bulk density) [3] | TD (tapped density) [3] | CI (Carr's Index) [3] | SMILES | also measured
0.10 | white | white | 0.10 | 0.17 | 0.20 | 0.28 | 0.34 g/mL and 0.32 g/mL | 0.45 g/mL | 24.44% and 28.89% | Cc1nc2c(O[C@H]3CCOc4cc(F)cc(F)c43)cc(C(=O)N(C)C)cc2[nH]1 [Crystalline form A, 4-[((4S)-5,7-difluoro-3,4-dihydro-2H-chromen-4-yl)oxy]-N,N,2-trimethyl-1H-benzimidazole-6-carboxamide] | Crystalline form [1, 4]: crystalline form A; DSC [1, 4]: 223 °C; Crystalline form ([1]; initial stage): crystalline form A; DSC ([1]; initial stage): 223 °C; Optical purity [2, 5]: 100%; Content of impurities (related compounds) ([2]; after 4 weeks, photo-stressed condition, listed as crystalline form A): ≤ 0.1%; Content of impurities (related compounds) ([2]; initial stage, listed as crystalline form A): ≤ 0.1%; Hygroscopicity values (Hygroscopicity test; stored at 33%, 75% and 93% relative humidity for 4 weeks): below 0.3
0.49 | yellow | white | 0.16 | 1.90 | 4.09 | 5.25 | 0.23 g/mL and 0.22 g/mL | 0.39 g/mL and 0.38 g/mL | 41.02% and 42.11% | Cc1nc2c(O[C@H]3CCOc4cc(F)cc(F)c43)cc(C(=O)N(C)C)cc2[nH]1 [Non-crystalline form, 4-[((4S)-5,7-difluoro-3,4-dihydro-2H-chromen-4-yl)oxy]-N,N,2-trimethyl-1H-benzimidazole-6-carboxamide] | Increase in content of related compounds ([2]; after 4-week photoexposure vs initial): ≥ 3 fold; Increase in content of optical isomers ([2]; after 4 weeks photo-stressed condition vs initial): 10 fold; Content of optical isomers [2, 5]: 0.47%; Content of optical isomers ([2]; initial stage): 0.04%; Content of impurities (related compounds) ([2]; initial stage, listed as non-crystalline form): 0.16%; Hygroscopicity (Hygroscopicity test; initial stage): 1.32
